In patent publication US9688642B2, “Substituted pyrazines as GPR40 agonists” (Janssen Pharmaceutica NV, priority 2014, dated 2017):
Several values for one entry are separate records, joined by “and”; a condition that tells them apart may be missing. Equal values may be shown once.

Assays:
human GPR40 = human GPR40 (Homo sapiens (Human), UniProt O14842); assay: GPR40 calcium flux assay, HEK293 cells stably expressing human GPR40; format: cell-based; conditions: transfected HEK293 cells stably expressing human GPR40; individual determinations listed; read-out: hGPR40 Ca2+ Assay EC50
Sequence of human GPR40 (O14842 whole entry): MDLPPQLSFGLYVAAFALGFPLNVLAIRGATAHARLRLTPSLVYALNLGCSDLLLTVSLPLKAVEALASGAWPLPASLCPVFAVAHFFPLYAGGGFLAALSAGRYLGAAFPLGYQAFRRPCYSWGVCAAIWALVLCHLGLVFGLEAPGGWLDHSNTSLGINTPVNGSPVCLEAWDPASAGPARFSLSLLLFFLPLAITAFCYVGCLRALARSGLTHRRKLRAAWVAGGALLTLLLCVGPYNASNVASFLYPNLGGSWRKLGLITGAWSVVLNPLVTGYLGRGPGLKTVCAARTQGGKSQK
Procedure: (§1) Compounds were tested in a calcium flux assay using transfected HEK293 cells stably expressing either human GPR40 or rat GPR40. Human GPR40 expressing cells were cultured in DMEM-High Glucose media supplemented with 10% fetal bovine serum, 1×L-Glutamine, 1× Penicillin/Streptomycin and 500 μg/mL G418. Rat GPR40 expressing cells were cultured in DMEM-High Glucose media supplemented with 10% fetal bovine serum and 1 μg/mL puromycin. Cells were plated into poly-D-lysine coated 384-well plates and cultured overnight in a 37° C. humidified tissue culture incubator under 5% CO2/90% O2 atmosphere. On the day of the experiment, the culture media was replaced with assay buffer (HBSS, 20 mM HEPES, 0.1% BSA) and the cells incubated at 37° C. for 1 h. Calcium-sensitive fluorescent dye (Fluo 8 No-Wash Calcium Dye, ABD Bioquest) was then added and the cells incubated for another 30 min at 37° C. followed by 15 min at room temperature while protected from the light. The cell plate and a plate of diluted compounds of Formula (I) were loaded into a fluorescent plate reader that added compounds onto the cells while measuring the fluorescence intensity of each well. The plate reader recorded fluorescence intensity at 1 second intervals for 8 min and provided the data for analysis in an Excel format. EC50 values were calculated using Prism (GraphPad) software.

rat GPR40 = rat GPR40 (Rattus norvegicus (Rat), UniProt Q8K3T4); assay: GPR40 calcium flux assay, HEK293 cells stably expressing rat GPR40; format: cell-based; conditions: transfected HEK293 cells stably expressing rat GPR40; individual determinations listed; read-out: rGPR40 Ca2+ Assay EC50
Sequence of rat GPR40 (Q8K3T4 whole entry): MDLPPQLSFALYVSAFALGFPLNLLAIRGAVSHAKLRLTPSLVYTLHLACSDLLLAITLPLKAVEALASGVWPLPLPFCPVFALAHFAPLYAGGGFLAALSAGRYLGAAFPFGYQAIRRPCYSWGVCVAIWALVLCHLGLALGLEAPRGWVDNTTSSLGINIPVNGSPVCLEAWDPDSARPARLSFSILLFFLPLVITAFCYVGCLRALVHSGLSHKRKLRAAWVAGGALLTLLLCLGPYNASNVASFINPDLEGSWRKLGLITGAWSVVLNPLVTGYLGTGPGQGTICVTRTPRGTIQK
Procedure: as §1

Row | Compound | EC50 (human GPR40) | EC50 (rat GPR40)
1 | COc1ccc(F)c(-c2ncc(COc3cccc([C@@H](CC(=O)O)C4CC4)c3)nc2OCCC(F)(F)F)c1 [Cpd 32, (3S)-3-cyclopropyl-3-[3-[[5-(2-fluoro-5-methoxy-phenyl)-6-(3,3,3-trifluoropropoxy)pyrazin-2-yl]methoxy]phenyl]propanoic acid] | 30 nM and 28 nM | 119 nM and 94 nM
2 | COc1ccc(F)c(-c2ncc(COc3cccc([C@@H](CC(=O)O)C4CC4)c3)nc2-c2sccc2C)c1 [Cpd 33, (3S)-3-cyclopropyl-3-[3-[[5-(2-fluoro-5-methoxy-phenyl)-6-(3-methyl-2-thienyl)pyrazin-2-yl]methoxy]phenyl]propanoic acid] | 34 nM and 27 nM | 120 nM and 110 nM and 100 nM and 82 nM
3 | COc1ccc(F)c(-c2ncc(COc3cccc([C@@H](CC(=O)O)C4CC4)c3)nc2N(C)C(C)C)c1 [Cpd 34, (3S)-3-cyclopropyl-3-[3-[[5-(2-fluoro-5-methoxy-phenyl)-6-[isopropyl(methyl)amino]pyrazin-2-yl]methoxy]phenyl]propanoic acid] | 33 nM and 30 nM | 112 nM and 104 nM and 88 nM and 86 nM
4 | COc1cccc(-c2ncc(COc3cccc([C@@H](CC(=O)O)C4CC4)c3)nc2C2=CCCC2(C)C)c1 [Cpd 35, (3S)-3-cyclopropyl-3-[3-[[6-(5,5-dimethylcyclopenten-1-yl)-5-(3-methoxyphenyl)pyrazin-2-yl]methoxy]phenyl]propanoic acid] | 50 nM and 25 nM | 356 nM and 242 nM
5 | COc1ccc(F)c(-c2ncc(COc3cccc([C@@H](CC(=O)O)C4CC4)c3)nc2-c2ccc(C)s2)c1 [Cpd 36, (3S)-3-cyclopropyl-3-[3-[[5-(2-fluoro-5-methoxy-phenyl)-6-(5-methyl-2-thienyl)pyrazin-2-yl]methoxy]phenyl]propanoic acid] | 40 nM and 38 nM | 118 nM and 109 nM and 105 nM and 86 nM
6 | COc1ccc(F)c(-c2ncc(COc3cccc([C@@H](CC(=O)O)C4CC4)c3)nc2C(C)C)c1 [Cpd 37, (3S)-3-cyclopropyl-3-[3-[[5-(2-fluoro-5-methoxy-phenyl)-6-isopropyl-pyrazin-2-yl]methoxy]phenyl]propanoic acid] | 45 nM and 44 nM | 141 nM and 109 nM
7 | COc1ccc(F)c(-c2ncc(COc3cccc([C@@H](CC(=O)O)C4CC4)c3)nc2N(C)C)c1 [Cpd 38, (3S)-3-cyclopropyl-3-[3-[[6-(dimethylamino)-5-(2-fluoro-5-methoxy-phenyl)pyrazin-2-yl]methoxy]phenyl]propanoic acid] | 55 nM and 42 nM | 399 nM and 395 nM
8 | COc1ccc(F)c(-c2ncc(COc3cccc([C@@H](CC(=O)O)C4CC4)c3)nc2C2CC2)c1 [Cpd 39, (3S)-3-cyclopropyl-3-[3-[[6-cyclopropyl-5-(2-fluoro-5-methoxy-phenyl)pyrazin-2-yl]methoxy]phenyl]propanoic acid] | 130 nM and 98 nM and 64 nM and 50 nM | 395 nM and 358 nM and 247 nM and 208 nM
9 | COc1ccc(F)c(-c2ncc(COc3cccc([C@@H](CC(=O)O)C4CC4)c3)nc2C(C)C(F)(F)F)c1 (stereo partly drawn) [Cpd 40, (3S)-3-cyclopropyl-3-[3-[[5-(2-fluoro-5-methoxy-phenyl)-6-(2,2,2-trifluoro-1-methyl-ethyl)pyrazin-2-yl]methoxy]phenyl]propanoic acid] | 64 nM and 52 nM | 253 nM and 249 nM and 236 nM and 227 nM
10 | COc1ccc(F)c(-c2ncc(COc3cccc([C@@H](CC(=O)O)C4CC4)c3)nc2OC2COC2)c1 [Cpd 41, (3S)-3-cyclopropyl-3-[3-[[5-(2-fluoro-5-methoxy-phenyl)-6-(oxetan-3-yloxy)pyrazin-2-yl]methoxy]phenyl]propanoic acid] | 79 nM and 69 nM | 553 nM and 416 nM
11 | COc1ccc(F)c(-c2ncc(COc3cccc([C@@H](CC(=O)O)C4CC4)c3)nc2OCC2CC(C)(C)C2)c1 [Cpd 42, (3S)-3-cyclopropyl-3-[3-[[6-[(3,3-dimethylcyclobutyl)methoxy]-5-(2-fluoro-5-methoxy-phenyl)pyrazin-2-yl]methoxy]phenyl]propanoic acid] | 17 nM and 14 nM | 32 nM and 29 nM
